# Earlier results in patent publication US20130053277A1 (priority 2010, published 2013).
# Target: influenza A virus M2 ion channel, S31N mutant (Influenza A virus, UniProt P0DOF5, S31N)
# Details: cited from earlier work
compound,measurement,value
"NC12CC3CC(CC(C3)C1)C2 [amantadine, Amantadine]",isochronic apparent inhibitory binding constant,200 JLM
